Several values for one entry are separate records, joined by “and”; a condition that tells them apart may be missing. Identical values can stand only once. Toxic doses and inconclusive results are not listed.
Test system: BDF1 mice, P388 leukemia ip, median survival T/C
Test: NCI In Vivo Anticancer Drug Screen. Data for tumor model P388 Leukemia (intraperitoneal) in B6D2F1 (BDF1) mice
Settings: endpoint: median survival time, higher = longer survival
Summary of the method: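 Survival ratio, drug arm over vehicle arm, in mice with a transplanted tumour.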

[1] = dose: 50.0 mg/kg/injection, schedule: Q01DX009 (ip), vehicle: saline with Tween-80
[2] = dose: 100.0 mg/kg/injection, schedule: Q01DX009 (ip), vehicle: saline with Tween-80
[3] = dose: 200.0 mg/kg/injection, schedule: Q01DX009 (ip), vehicle: saline with Tween-80
[4] = dose: 25.0 mg/kg/injection, schedule: Q01DX009 (ip), vehicle: saline with Tween-80

How did the T/C (dose: 10.0 mg/kg/injection, schedule: Q01DX009 (ip), vehicle: saline) turn out when `CCCN=C(N)c1ccc(N=C(N)c2ccc(N=C(N)c3ccc(C(N)=NCCC)cc3)cc2)cc1` was run?
Its T/C is 154 % of control.

What about the T/C (dose: 15.0 mg/kg/injection, schedule: Q01DX009 (ip), vehicle: saline) of the same molecule?
The T/C was 190 % of control.

With `CCCCCCCCCC(=O)NC(C)C(O)c1ccccc1` (configuration not stated) as the molecule, how does the T/C [1] read?
The T/C was 109 % of control.

And the T/C [2]?
The T/C was 100 % of control.

What about the T/C [3] of the same molecule?
The T/C was 89 % of control.

`CC1CCC2(C)CCC3(C)C(=CCC4C5(C)CCC(O)C(C)(C)C5CCC43C)C2C1C` (configuration not stated) was tested. Which T/C (dose: 100.0 mg/kg/injection, schedule: Q01DX009 (ip), vehicle: water) did it give?
Its T/C is 90 % of control.

And the T/C (dose: 100.0 mg/kg/injection, schedule: Q04DX003 (ip), vehicle: water)?
The T/C was 90 % of control.

What about the T/C (dose: 200.0 mg/kg/injection, schedule: Q04DX003 (ip), vehicle: water) of the same molecule?
Its T/C is 90 % of control.

What about the T/C (dose: 400.0 mg/kg/injection, schedule: Q01DX009 (ip), vehicle: water) of the same molecule?
The T/C was 90 % of control.

What about the T/C (dose: 400.0 mg/kg/injection, schedule: Q04DX003 (ip), vehicle: water) of the same molecule?
Its T/C is 90 % of control.

Which results are given for `O=C(NCCc1c[nH]c2ccccc12)c1cccnc1`?
T/C (dose: 100.0 mg/kg/injection, schedule: Q01DX001 (ip), vehicle: saline): 104 % of control; T/C (dose: 200.0 mg/kg/injection, schedule: Q01DX001 (ip), vehicle: saline): 100 % of control; T/C (dose: 400.0 mg/kg/injection, schedule: Q01DX001 (ip), vehicle: saline): 95 % of control

`CC(=O)C/C(C)=N/NC(=O)c1ccncc1` was tested. Which T/C (dose: 150.0 mg/kg/injection, schedule: Q01DX009 (ip), vehicle: saline with Tween-80) did it give?
The T/C was 90 % of control.

For `CCC[N+]12C(O)C(CC)C3CC1C1N(C)c4ccc(Br)cc4C14CC2C3C4O` (configuration not stated), which T/C [1] is on record?
The T/C was 102 % of control.

What about the T/C [2] of the same molecule?
Its T/C is 105 % of control.

For `Nc1ncncc1-c1cccc2ccccc12`, which T/C [1] is on record?
The T/C was 108 % of control.

And the T/C [2]?
Its T/C is 99 % of control.

And the T/C [3]?
The T/C was 108 % of control.

Which results are given for `NC(=S)NNC(=O)C(Cc1ccccc1)NC(=O)OCc1ccccc1` (configuration not stated)?
T/C (dose: 12.5 mg/kg/injection, schedule: Q01DX009 (ip), vehicle: saline with Tween-80): 100 % of control; T/C [4]: 94 % of control

What does the source list for `C[C@H]1C=C(O)C(=O)[C@@]2(C)C[C@H]3CCC(=O)O[C@H]3C[C@H]12`?
T/C (dose: 2.5 mg/kg/injection, schedule: Q01DX009 (ip), vehicle: saline + alcohol): 105 % of control; T/C (dose: 5.0 mg/kg/injection, schedule: Q01DX009 (ip), vehicle: saline + alcohol): 107 % of control; T/C (dose: 10.0 mg/kg/injection, schedule: Q01DX009 (ip), vehicle: saline + alcohol): 91 % of control; T/C (dose: 20.0 mg/kg/injection, schedule: Q01DX009 (ip), vehicle: saline + alcohol): 100 % of control

For `COc1cc([C@@H]2c3cc4c(cc3C[C@H]3COC(=O)[C@@H]32)OCO4)cc(OC)c1OC`, which T/C (dose: 1.25 mg/kg/injection, schedule: Q01DX010 (ip), vehicle: saline) is on record?
The T/C was 109 % of control.

And the T/C (dose: 2.5 mg/kg/injection, schedule: Q01DX001 (ip), vehicle: other)?
The T/C was 105 % of control.

And the T/C (dose: 2.5 mg/kg/injection, schedule: Q01DX010 (ip), vehicle: saline)?
Its T/C is 118 % of control.

And the T/C (dose: 5.0 mg/kg/injection, schedule: Q01DX001 (ip), vehicle: other)?
The T/C was 115 % of control.

And the T/C (dose: 10.0 mg/kg/injection, schedule: Q01DX010 (ip), vehicle: other)?
The T/C was 154 % of control.

What about the T/C (dose: 20.0 mg/kg/injection, schedule: Q01DX010 (ip), vehicle: other) of the same molecule?
The T/C was 95 % of control.

Which T/C (dose: 75.0 mg/kg/injection, schedule: Q04DX003 (ip), vehicle: saline) does the source give for `N#CC(c1ccccc1)C1CCCCC1` (configuration not stated) here?
The T/C was 111 % of control.

What about the T/C (dose: 150.0 mg/kg/injection, schedule: Q04DX003 (ip), vehicle: saline) of the same molecule?
Its T/C is 107 % of control.

What about the T/C (dose: 300.0 mg/kg/injection, schedule: Q04DX003 (ip), vehicle: saline) of the same molecule?
Its T/C is 115 % of control.

With `O=C(/C=C/c1cccc(Cl)c1)c1ccccc1` as the molecule, how does the T/C (dose: 100.0 mg/kg/injection, schedule: Q01DX009 (ip), vehicle: Klucel (hydroxypropylcellulose) (HPC)) read?
The T/C was 115 % of control.

Which T/C [1] does the source give for `CC1(C)C2CCC1(C)C1(C2)OC(CCl)CS1` (configuration not stated) here?
Its T/C is 90 % of control.

And the T/C [2]?
The T/C was 94 % of control.

And the T/C [3]?
The T/C was 108 % of control.

For `Clc1ccc(CN2COc3c(ccc4cccnc34)C2)cc1Cl`, which T/C (dose: 50.0 mg/kg/injection, schedule: Q04DX003 (ip), vehicle: saline with Tween-80) is on record?
The T/C was 104 % of control.

And the T/C (dose: 100.0 mg/kg/injection, schedule: Q04DX003 (ip), vehicle: saline with Tween-80)?
Its T/C is 104 % of control and 118 % of control.

And the T/C (dose: 200.0 mg/kg/injection, schedule: Q04DX003 (ip), vehicle: saline with Tween-80)?
Its T/C is 109 % of control.

What about the T/C (dose: 400.0 mg/kg/injection, schedule: Q04DX003 (ip), vehicle: saline with Tween-80) of the same molecule?
Its T/C is 120 % of control.

For `CN=C(N)c1ccc(N=C(N)c2ccc(N=C(N)c3ccc(NC(=O)Nc4cccc(NC(=O)Nc5ccc(C(N)=Nc6ccc(C(N)=Nc7ccc(C(N)=NC)cc7)cc6)cc5)c4)cc3)cc2)cc1`, which T/C (dose: 0.8 mg/kg/injection, schedule: Q01DX009 (ip), vehicle: saline with Tween-80) is on record?
Its T/C is 119 % of control.

What about the T/C (dose: 3.0 mg/kg/injection, schedule: Q01DX009 (ip), vehicle: saline with Tween-80) of the same molecule?
Its T/C is 162 % of control.

And the T/C (dose: 4.5 mg/kg/injection, schedule: Q04DX003 (ip), vehicle: saline with Tween-80)?
Its T/C is 150 % of control.

And the T/C (dose: 5.0 mg/kg/injection, schedule: Q01DX009 (ip), vehicle: saline with Tween-80)?
Its T/C is 175 % of control and 195 % of control.

And the T/C (dose: 7.0 mg/kg/injection, schedule: Q04DX003 (ip), vehicle: saline with Tween-80)?
Its T/C is 150 % of control.

And the T/C (dose: 8.0 mg/kg/injection, schedule: Q01DX009 (ip), vehicle: saline with Tween-80)?
Its T/C is 212 % of control.

What about the T/C (dose: 11.0 mg/kg/injection, schedule: Q04DX003 (ip), vehicle: saline with Tween-80) of the same molecule?
The T/C was 154 % of control.

And the T/C (dose: 12.0 mg/kg/injection, schedule: Q01DX009 (ip), vehicle: saline with Tween-80)?
Its T/C is 168 % of control and 170 % of control.

What about the T/C (dose: 17.0 mg/kg/injection, schedule: Q04DX003 (ip), vehicle: saline with Tween-80) of the same molecule?
Its T/C is 170 % of control and 179 % of control.

What about the T/C (dose: 18.0 mg/kg/injection, schedule: Q01DX009 (ip), vehicle: saline with Tween-80) of the same molecule?
The T/C was 240 % of control and 192 % of control.

What about the T/C (dose: 25.0 mg/kg/injection, schedule: Q04DX003 (ip), vehicle: saline with Tween-80) of the same molecule?
The T/C was 200 % of control.

What about the T/C (dose: 27.0 mg/kg/injection, schedule: Q01DX009 (ip), vehicle: saline with Tween-80) of the same molecule?
The T/C was 200 % of control.

What about the T/C (dose: 37.0 mg/kg/injection, schedule: Q01DX009 (ip), vehicle: saline with Tween-80) of the same molecule?
Its T/C is 100 % of control.

And the T/C (dose: 37.0 mg/kg/injection, schedule: Q04DX003 (ip), vehicle: saline with Tween-80)?
The T/C was 166 % of control and 191 % of control.

What about the T/C (dose: 37.5 mg/kg/injection, schedule: Q04DX003 (ip), vehicle: saline with Tween-80) of the same molecule?
Its T/C is 181 % of control.

And the T/C (dose: 55.0 mg/kg/injection, schedule: Q04DX003 (ip), vehicle: saline with Tween-80)?
Its T/C is 158 % of control and 195 % of control.

Which results are given for `O=C1c2ccccc2C(=O)N1CN1CCN(c2ccc(F)cc2)CC1`?
T/C (dose: 50.0 mg/kg/injection, schedule: Q01DX005 (ip), vehicle: saline with Tween-80): 103 % of control; T/C (dose: 100.0 mg/kg/injection, schedule: Q01DX005 (ip), vehicle: saline with Tween-80): 94 % of control; T/C (dose: 200.0 mg/kg/injection, schedule: Q01DX005 (ip), vehicle: saline with Tween-80): 103 % of control

With `Clc1nc(NCc2ccccc2)c2cn[nH]c2n1` as the molecule, how does the T/C [4] read?
The T/C was 91 % of control.

And the T/C [1]?
Its T/C is 91 % of control.

And the T/C [2]?
The T/C was 91 % of control.

What does the source list for `O/C(=C/C(=S)S)c1cccs1`?
T/C (dose: 0.1 mg/kg/injection, schedule: Q04DX003 (ip), vehicle: water): 88 % of control; T/C (dose: 0.2 mg/kg/injection, schedule: Q04DX003 (ip), vehicle: water): 97 % of control; T/C (dose: 0.39 mg/kg/injection, schedule: Q01DX009 (ip), vehicle: water): 101 % of control; T/C (dose: 0.4 mg/kg/injection, schedule: Q04DX003 (ip), vehicle: water): 95 % of control; T/C (dose: 0.78 mg/kg/injection, schedule: Q01DX009 (ip), vehicle: water): 97 % of control; T/C (dose: 0.8 mg/kg/injection, schedule: Q04DX003 (ip), vehicle: water): 89 % of control; T/C (dose: 1.56 mg/kg/injection, schedule: Q01DX009 (ip), vehicle: water): 92 % of control; T/C (dose: 3.12 mg/kg/injection, schedule: Q01DX009 (ip), vehicle: water): 100 % of control; T/C (dose: 6.25 mg/kg/injection, schedule: Q01DX009 (ip), vehicle: water): 102 % of control; T/C (dose: 6.25 mg/kg/injection, schedule: Q04DX003 (ip), vehicle: water): 111 % of control; T/C (dose: 12.5 mg/kg/injection, schedule: Q01DX009 (ip), vehicle: water): 94 % of control

What does the source list for `Clc1nc(Cl)c(Nc2ccn[nH]2)nc1Cl`?
T/C [1]: 100 % of control; T/C [2]: 95 % of control and 100 % of control; T/C [3]: 100 % of control; T/C (dose: 400.0 mg/kg/injection, schedule: Q01DX009 (ip), vehicle: saline with Tween-80): 95 % of control

Which results are given for `CCCCCCCCCCCCNC(=O)CC(O)(CC(=O)O)C(=O)O` (configuration not stated)?
T/C (dose: 25.0 mg/kg/injection, schedule: Q04DX003 (ip), vehicle: Klucel (hydroxypropylcellulose) (HPC)): 111 % of control; T/C (dose: 50.0 mg/kg/injection, schedule: Q04DX003 (ip), vehicle: Klucel (hydroxypropylcellulose) (HPC)): 88 % of control; T/C (dose: 100.0 mg/kg/injection, schedule: Q04DX003 (ip), vehicle: Klucel (hydroxypropylcellulose) (HPC)): 92 % of control
